Earlier results as cited in US6958144B2, “Methods of whitening teeth” (Britesmile Development, Inc., priority 1995, dated 2005).

Settings: 10% carbamide peroxide solution, background statement

SMILES: NC(N)=O.OO [carbamide peroxide]
- equilibrium pH: approximately 3.45
